Where a name gives a salt, the structure may show the parent alone.
Tests used:
Type in all cases: cell-based
[1] = test system: F-actin retrograde flow in YTS and pNK F-tractin GFP cells; experiment: Live cell imaging and kymograph analysis of F-actin retrograde flow (ARF) in F-tractin GFP NK cells; conditions: 25 μM Y-27, activating vs. inhibitory NKIS
From the text: FIGS. […] In FIG. 5A, YTS F-tractin GFP cells were dropped over coverslips coated with anti-CD28 or anti-KIR1 antibodies, and imaged at 1 frame/sec through a single focal plane. […] Representative images are shown. Kymographs of F-actin dynamics were compiled along the contact site radius. […]
The y axis represents F-actin velocity (μm/sec), and the x axis—time from initial spreading (sec).
FIGS. 5E-5H. show analyses of NKIS area and ARF in the activating vs. inhibitory NKIS in the presence of Y-27632 (Y-27) inhibitor of myosin light chain (MLC) phosphorylation and/or JAS. […] NKIS area was determined using ImageJ. […]
Analyses of actin and SHP-1 dynamics were performed by preparing kymographs from live cell videos and tracing the movement of the fluorescently tagged proteins. […] Velocity over distance from the center was determined by calculating the velocity of the tracked protein based on the distance traversed to time between each two points on the trace, and noting the relative location from the center of the measured area. […] For each bin, average velocity and standard error were calculated. Average distance traversed over time was calculated by measuring the location of the trace, relative to its point of origin at each time point after the beginning of the trace. For each relative time point from the beginning of a trace, an average distance and standard error were calculated. […]

[2] = test system: myosin light chain (MLC) phosphorylation on Serine 19; experiment: Immunoblot of myosin light chain phosphorylation with anti-pMLC (Ser19); conditions: 25 μM Y-27 for 15 min
Experimental: YTS-2DL1 cells were treated with 25 μM of Y-27 for 15 min at 37° C., or left untreated. Cells were incubated at 37° C. with […] target cells for 5 min, 1 μM of JAS was added, and cells were incubated for 5 min. Cell lysates were analyzed by IB for phosphorylation of myosin light chain using anti-pMLC (Ser19) antibodies.
For analysis of whole cell lysates, 1-10×10^5 cells were used, and for IP experiments, 10-15×10^6 cells were used. Protein A/G plus-Agarose beads (Santa Cruz Biotechnology) were used for IP. Protein samples were resolved with sodium dodecyl sulfate-polyacrylamide gel electrophoresis (SDS-PAGE), transferred to nitrocellulose membrane, and immunoblotted with the appropriate primary antibodies. Immunoreactive proteins were detected with either anti-mouse or anti-rabbit horseradish peroxidase-coupled secondary antibody followed by detection by enhanced chemiluminescence (PerkinElmer).

[3] = test system: SHP-1; experiment: PTP assay: SHP-1 catalytic activity (pNPP hydrolysis) after treatment of NK-target cell conjugates; conditions: inhibited NK cells (YTS-2DL1 + 221-Cw4), untreated 100±2.8%; 1 μM JAS, 25 μM Y-27
Experimental: YTS-2DL1 cells were pretreated with 25 μM Y-27 or left untreated. Cells were incubated at 37° C. with target cells for 5 min, 1 μM of JAS was added, and samples were incubated for 5 minutes before lysis. IP of SHP-1 was performed, and precipitates were incubated with pNpp. SHP-1 activity was determined by measuring absorbance at 405 nm. The graph represents rates of SHP-1 catalytic activity from three independent experiments.
In FIG. 8E, YTS-2DL1 cells were incubated at 37° C. with 221-Cw4 or Cw7 cells for 5 min, treated with 0.5 μM of CytD or left untreated, and SHP-1 activity was determined as detailed in the Materials and Methods. Graph summarizing percent of relative SHP-1 catalytic activity obtained by four independent experiments. Data are means±SEM.
SHP-1 catalytic activity was determined by measuring the hydrolysis of the exogenous substrate p-Nitrophenyl Phosphate (pNPP) by SHP-1, as previously described. NK cells (2-5×10^6) were incubated with target cells at ratio of 1:1, activated as described above, and lysed with passive ice-cold lysis buffer (1% Brij, 1% n-Octyl-b-D-glucoside, 50 mM Tris-HCl, pH 7.4, 150 mM NaCl, 5 mM ethylenediaminetetraacetic acid, and complete protease inhibitor tablets). Cell lysates were subjected to IP with anti-SHP-1 antibody. […] Reactions were terminated by adding 800 μl 1M NaOH, and SHP-1 activity was determined by measuring absorbance at 405 nm.

For `C[C@@H](N)C1CCC(C(=O)Nc2ccncc2)CC1` (stereo partly drawn) [Formula Y-27, 4-[(1R)-1-aminoethyl]-N N-4-pyridinyl-trans-cyclohexanecarboxamide, dihydrochloride], the F-actin flow [1] was “complete arrest of F-actin flow”, the “MLC phosphorylation (pMLC S19)” value [2] was “significant reduction in phosphorylation” and the SHP-1 catalytic activity [3] was 66.4±1.1%.

— US20190343801A1, “COMPOSITIONS AND METHODS FOR CONTROLLING NATURAL KILLER CELL ACTIVATION AND FUNCTION” (BAR ILAN UNIVERSITY, priority 2017, published 2019)
